Experimental data as given in patent US20060019966A1, “Method for treating nervous system disorders and conditions” (Wyeth, priority 2004, published 2006).

Key:
[1] = molecular target: T1, hNET (Homo sapiens, UniProt P23975); assay: Norepinephrine (NE) uptake assay, hNET function uptake; type: cell-based; details: MDCK-Net6 cells, [3H]NE uptake
T1 construct: expressed in transfected cells; host or cells: MDCK-Net6 (MDCK cells stably transfected with hNET)
Description: (§1) The JAR cell line (human placental choriocarcinoma) may be purchased from ATCC (Cat. No. HTB-144). […] For all assays, cells may be plated in Wallac 96-well sterile plates (PerkinElmer, Cat. No. 3983498).
Test compounds are prepared in DMSO (10 mM) and diluted in assay buffer according to test range (1 to 10,000 nM). Twenty-five microliters of assay buffer (maximum NE uptake) or test compound are added directly to triplicate wells containing cells in 200 μl of assay buffer. […] To initiate the NE uptake, [^3H]NE diluted in assay buffer (120 nM final assay concentration) is delivered in 25 μl aliquots to each well and the plates is incubated for 5 minutes (37° C.).

[2] = molecular target: T2, hSERT (Homo sapiens, UniProt P31645); assay: Serotonin (5-HT) uptake assay, hSERT function uptake; type: cell-based; details: JAR cells, [3H]5-HT uptake
T2 construct: The methods for 5-HT functional reuptake using the JAR cell line; host or cells: JAR (human placental choriocarcinoma), staurosporine-stimulated
Description: as §1
The methods for 5-HT functional reuptake using the JAR cell line is modified using a previous literature report (Prasad, et al., Placenta, 1996. 17(4): 201-7). […] On day 2, cells are stimulated with staurosporine (40 nM) to increase the expression of the 5-HT transporter. On day 3, cells are removed from the cell incubator two hours prior to assay and maintained at room temperature to equilibrate the growth medium to ambient oxygen concentration. […] Data from these wells are used to define non-specific 5-HT uptake (minimum 5-HT uptake). Test compounds are prepared in DMSO (10 mM) and diluted in assay buffer according to test range (1 to 1,000 nM). Twenty-five microliters of assay buffer (maximum 5-HT uptake) or test compound are added directly to triplicate wells containing cells in 200 μl of assay buffer. The cells are incubated with the compound for 10 minutes (37° C.). To initiate the reaction, [^3H]hydroxytryptamine creatinine sulfate diluted in assay buffer is delivered in 25 μl aliquots to each well for a final test concentration of 15 nM. The cells are incubated with the reaction mixture for 5 minutes at 37° C. The 5-HT uptake reaction is terminated by decanting the assay buffer.

[3] = molecular target: T3, recombinant human dopamine transporter (hDAT) (Homo sapiens, UniProt Q01959); assay: Dopamine uptake transporter binding assay (3H-WIN 35,428); details: inhibition of 3H-WIN 35,428 binding to hDAT membranes
T3 construct: purchased PerkinElmer RBHDATM

[4] = system: tail skin temperature (TST) in ovariectomized (OVX) rats; assay: Telemetry rat model of ovariectomy-induced thermoregulatory dysfunction; type: in vivo; details: 30 mg/kg, sc, single dose
Source text: Telemetry model: This model has been modified from a previously reported protocol describing estrogen regulation of diurnal tail skin temperature (TST) patterns (Berendsen, et al., European Journal of Pharmacology, 2001, 419(1): 47-54). […] In ovariectomized (OVX) rats, TST is elevated over the entire 24-hour period, thus the usual decrease in TST during the active (dark) phase is lost, thus, a compound's ability to restore this lowering of TST during the active phase was examined. […] After a 7-day recovery period, TST readings were continuously recorded for the remainder of the study. Tail skin temperature readings were collected from each animal every 5 minutes with values obtained over a 10 second sampling period. The day before test day, an average baseline TST value was calculated for each animal by averaging temperature readings recorded during the 12 hour active (dark) phase. […]
Statistical analysis: Evaluation of a compound's ability to restore normal lowering of TST in the telemetry model was analyzed using hourly TST values calculated for each animal by averaging the 12 temperature readings obtained every 5 minutes over that recording time. […]

T2 sequence (P31645 whole entry): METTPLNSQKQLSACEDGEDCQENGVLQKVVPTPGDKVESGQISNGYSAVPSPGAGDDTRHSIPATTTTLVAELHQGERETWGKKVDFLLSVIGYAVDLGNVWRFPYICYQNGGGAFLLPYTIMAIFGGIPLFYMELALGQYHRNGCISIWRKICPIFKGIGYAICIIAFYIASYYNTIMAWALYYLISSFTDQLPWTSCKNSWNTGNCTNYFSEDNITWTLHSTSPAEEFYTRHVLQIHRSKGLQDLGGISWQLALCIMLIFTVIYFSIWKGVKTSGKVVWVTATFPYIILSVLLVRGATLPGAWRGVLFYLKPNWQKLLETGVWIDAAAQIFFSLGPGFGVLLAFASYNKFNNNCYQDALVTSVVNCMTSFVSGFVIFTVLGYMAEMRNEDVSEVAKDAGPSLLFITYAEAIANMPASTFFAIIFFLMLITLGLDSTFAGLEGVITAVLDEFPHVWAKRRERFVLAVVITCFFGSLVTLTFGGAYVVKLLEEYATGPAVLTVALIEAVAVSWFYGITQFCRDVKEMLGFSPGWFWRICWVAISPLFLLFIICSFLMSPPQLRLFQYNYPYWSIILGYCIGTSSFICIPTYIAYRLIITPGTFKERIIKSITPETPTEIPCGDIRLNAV
T1 sequence (P23975 whole entry): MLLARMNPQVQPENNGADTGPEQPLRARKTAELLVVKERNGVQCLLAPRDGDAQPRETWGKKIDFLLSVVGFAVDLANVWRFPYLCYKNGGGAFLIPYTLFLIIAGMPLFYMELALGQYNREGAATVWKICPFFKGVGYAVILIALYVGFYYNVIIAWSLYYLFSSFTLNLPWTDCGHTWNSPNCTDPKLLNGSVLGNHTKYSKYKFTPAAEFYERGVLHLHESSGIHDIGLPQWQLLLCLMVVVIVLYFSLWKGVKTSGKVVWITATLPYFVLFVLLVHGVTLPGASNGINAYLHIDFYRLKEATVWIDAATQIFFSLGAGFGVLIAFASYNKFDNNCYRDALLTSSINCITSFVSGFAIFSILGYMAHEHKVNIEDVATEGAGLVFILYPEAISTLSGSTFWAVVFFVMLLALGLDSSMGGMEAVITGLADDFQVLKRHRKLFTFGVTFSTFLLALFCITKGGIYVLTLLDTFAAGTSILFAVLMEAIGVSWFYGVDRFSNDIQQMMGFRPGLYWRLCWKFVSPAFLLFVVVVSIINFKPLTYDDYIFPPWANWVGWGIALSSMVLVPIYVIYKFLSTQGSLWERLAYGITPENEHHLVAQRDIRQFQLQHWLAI
T3 sequence (Q01959 whole entry): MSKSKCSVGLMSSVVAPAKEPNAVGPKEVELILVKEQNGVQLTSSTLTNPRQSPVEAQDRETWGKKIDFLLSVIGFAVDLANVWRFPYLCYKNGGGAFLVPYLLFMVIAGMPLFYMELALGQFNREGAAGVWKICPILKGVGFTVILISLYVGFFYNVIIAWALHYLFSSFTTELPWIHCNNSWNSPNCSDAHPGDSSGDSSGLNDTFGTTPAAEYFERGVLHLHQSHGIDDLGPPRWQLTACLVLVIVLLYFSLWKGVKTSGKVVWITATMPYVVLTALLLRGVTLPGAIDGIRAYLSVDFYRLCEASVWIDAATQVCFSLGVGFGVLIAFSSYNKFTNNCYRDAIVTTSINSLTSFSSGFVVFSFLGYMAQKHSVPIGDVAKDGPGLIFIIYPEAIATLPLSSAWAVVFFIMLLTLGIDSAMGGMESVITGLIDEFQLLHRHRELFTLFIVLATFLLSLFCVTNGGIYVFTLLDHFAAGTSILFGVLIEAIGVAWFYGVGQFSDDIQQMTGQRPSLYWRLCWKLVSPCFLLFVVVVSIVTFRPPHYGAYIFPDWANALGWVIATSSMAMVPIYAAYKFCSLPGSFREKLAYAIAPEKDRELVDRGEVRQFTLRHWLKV

| EC50 [1] [nM] | EC50 [2] [nM] | hDAT binding (% I at 10 μM) [3] [%] | SMILES | effect on tail skin temperature (TST) [4] |
| --- | --- | --- | --- | --- |
| 1180 | 977 | 55 | Cc1ccc(C23CNCC2C3)cc1 (single isomer, unassigned; (-)) [(−)-1-(4-methylphenyl)-3-azabicyclo[3.1.0]hexane] | restored normal TST |
|  |  |  | Fc1ccc(C(OCCN2CCN(CCCc3ccccc3)CC2)c2ccc(F)cc2)cc1 [1-[2-[bis(4-fluorophenyl)methoxy]ethyl]-4-(3-phenylpropyl)piperazine, reference compound] | restored normal TST |
